Measured values: patent US8269017B2, “Compounds for the treatment of proliferative disorders” (Synta Pharmaceuticals Corporation, priority 2005, dated 2012)
Like-named read-outs stand apart in the source and are kept apart here.

Columns and labels:
SB cells = experiment: Induction of apoptosis in SB cells (Annexin V/PI, FACS); type: cell-based; details: 24 h; for % Apoptotic Cells Gated: 1 μM; for cytotoxicity at 1 µM: read-out: % Dead Cells Gated; for viability at 1 µM: read-out: % Live Cells Gated
Procedure: SB cells (2×10^5 cells/mL) were cultured in 12-well plates (2 mL/well) and were left untreated (negative control), treated with Taxol (positive control), or treated with a compound of the invention for 24 h at 37° C. After treatment, the cells were washed one time with 1×PBS and stained with FITC labeled anti-Annexin V and PI (10 μg/ml) for 15 min at room temperature. The cells were analyzed by FACSCalibur (Becton Dickinson).

MDA-435 cells = experiment: Cell cycle analysis in MDA-435 cells; type: cell-based, human; details: 20 h, Taxol 30 nM, Comp. 1 100 nM, Comp. 2 500 nM, Comp. 3 10 nM, Comp. 6 800 mM (so in the source), Comp. 46 50 nM
Procedure: MDA-435 cells were cultured in 6-well plates at 1×10^6 cells/well and were untreated (negative control), treated with Taxol (positive control), or treated with a compound of the invention at 37° C. for 20 h. The cells were detached with 1× trypsin and washed one time with PBS. Cycle TEST PLUS kit (BD PharMingen, Cat #340242) was used to stain the cells. Cell cycle was analyzed with FACScomp program (BS PharMingen).

[1] = test system: α-tubulin-YFP labeled microtubules in MCF7-α-tubulin-YFP cells; experiment: Inhibition of tubulin polymerization in α-tubulin-YFP expressing cells (fluorescence imaging); type: cell-based
Procedure: Living cells were examined using a fluorescent microscope for α-tubulin-YFP expression.
CHO-α-tubulin-YFP or MCF7-α-tubulin-YFP cells were cultured in 2-well chambered cover-slips (Labtek (Campbell, Calif.) or Fisher Scientific) for 24 hours before treatment with a compound of the invention. For comparison of the effects of treatment on α-tubulin-YFP labeled microtubules with the compounds of the invention, CHO-α-tubulin-YFP or MCF7-α-tubulin-YFP cells were treated with the a compound of the invention, Taxol or equivalent concentrations of DMSO-containing media for various time periods before imaging. Tubulin-YFP fluorescence in living cells or fixed cells was captured using a standard filter for FITC and objectives of 20× or 60× magnification on a Nikon TE300 microscope with a Leica DC50 color digital camera (Leica, Bannockburn, Ill.) or a CoolSnap HQ monochrome CCD camera (Photonetrics, Tucson, Ariz.). The Leica DC50 and CoolSnapHQ cameras were controlled with Leica DC50 software and MetaVue/MetaMorph software, respectively (Universal Imaging Corp, Downingtown, Pa.).

MDA-435 = experiment: Cytotoxicity in MDA-435 tumor cells (Cell Counting Kit 8); type: cell-based; details: Homo sapiens, MDA435, MDA-435 cells, 70 h
Procedure: Tumor cell line, MDA-435, was seeded in 96-well plates at 1×10^4 cells/well in DMEM medium and treated with compounds at different concentrations. Taxol was used as a positive control. The cells were incubated at 37° C. for 70 h. Viability of the cells was measured with Cell Counting Kit 8 (Dojindo, Cat #CK04). IC50 of the compounds was determined by Five-Parameter Logistic equation.

HL-60 (T-cell leukemia) = experiment: In vitro cytotoxicity, MTS assay, HL-60; type: cell-based, human; details: Homo sapiens
Procedure: (§1) The in vitro cytotoxicity of the compounds of the invention was determined in the following human cell lines: HL-60 (T-cell leukemia), MDA-435 and MCF-7 (human breast carcinoma), NCI-H460 and H29 (colon carcinoma), DU145 (prostate carcinoma), and MES-SA and MES-SA/DX5 (uterine sarcoma). MES-SA is a model of uterine sarcoma, and the cell are sensitive to a number of chemotherapeutic agents including doxorubicin, dactinomycin, mitomycin C, taxol and bleomycin, but resistant to vinblastine and cisplatin. MES-SA/Dx5 was established in the presence of increasing concentrations of doxorubicin. […] All cells were purchased from ATCC.
(§2) The cell lines were maintained in RPMI1640 (GIBCO) supplemented with 10% FCS, 100 units/mL penicillin, 100 ug/ml streptomycin, and 2 mM L-glutamine. Cells were split every third day and diluted to a concentration of 2×10^5 cells/mL one day before the experiment was performed. All experiments were performed on exponentially growing cell cultures. Cell densities were 2.5×10^4 cells/mL in all experiments.
(§3) Compounds of the invention were prepared by dissolving the compound at a concentration of 10 mM in 100% DMSO. Final concentrations 10, 1, 0.1, 0.01 and 0.001 μM were obtained by diluting the stock solution directly into the tissue culture medium.

[2] = test system: MDA-435 (human breast carcinoma); experiment: In vitro cytotoxicity, MTS assay, MDA-435; type: cell-based; details: MDA435, MDA-435 (Breast Cancer), 72 hours
Procedure: as §1, §2, §3

[3] = test system: MCF-7 (human breast carcinoma); experiment: In vitro cytotoxicity, MTS assay, MCF-7; type: cell-based; details: MCF7, MCF-7 (Breast Cancer), 72 hours
Procedure: as §1, §2, §3

[4] = test system: NCI-H460 (colon carcinoma); experiment: In vitro cytotoxicity, MTS assay, NCI-H460; type: cell-based; details: Homo sapiens, 72 hours
Procedure: as §1, §2, §3

[5] = test system: DU145 (prostate carcinoma); experiment: In vitro cytotoxicity, MTS assay, DU145; type: cell-based; details: Homo sapiens, DU-145, 72 hours
Procedure: as §1, §2, §3

H29 (colon carcinoma) = experiment: In vitro cytotoxicity, MTS assay, H29; type: cell-based; details: Homo sapiens, 72 hours
Procedure: as §1, §2, §3

[6] = test system: MES-SA/DX5 (uterine sarcoma, MDR-1); experiment: cells; type: cell-based; details: Homo sapiens, MES/DX5 (MDR-1), MTS assay
Procedure: as §1, §2, §3

MES-SA (uterine sarcoma) = experiment: In vitro cytotoxicity, MTS assay, MES-SA; type: cell-based, human; details: Homo sapiens, MES-SA (Uterine Carcinoma)
Procedure: as §1, §2, §3

[7] = test system: primary human umbilical vein endothelium cells (HUVEC cells); experiment: Microtubule depolymerization in HUVEC cells (anti-tubulin immunofluorescence); type: cell-based; details: 24 hr
Procedure: (§4) Depolymerizing microtubules not only kills dividing tumor cells but also induces disruption of newly generated blood vessels in tumor. The potency of Compound 249 in depolymerizing microtubules was examined in Africa green monkey kidney fibroblasts (CV1 cells) and primary human umbilical vein endothelium cells (HUVEC cells). The cells were treated with drugs (1, 10, 100, and 1000 nM for CV-1 and 1, 5, 10, 50, 100 nM for HUVEC) for 24 hr and fixed with 3% paraformaldehyde followed by cold methanol treatment to preserve both microtubule structures and depolymerized tubulin in the cytoplasm. The cells were stained with anti-tubulin antibody and subsequently fluorescent conjugated secondary antibody to visualize microtubule networks or cytoplasmic tubulin with fluorescent microscopy. As shown in FIG. 20 and FIG. 21, Compound 249 completely depolymerizes MT in a considerable proportion of CV1 cells at 10 nM and HUVEC cells at 1 nM (about 10% for both cell lines; data not shown). At 100 nM for CV1 and 5 nM for HUVEC cells, microtubules were completely depolymerized in nearly 100% cells. Tubulin staining in these cells was shown as cytoplasmic location and no microtubule structures were found in those cells. […] Compound 249 is a potent microtubule depolymerizing drug and HUVEC cells are extremely sensitive to Compound 249's anti-microtubule effect.

[8] = test system: Africa green monkey kidney fibroblasts (CV1 cells); experiment: Microtubule depolymerization in CV-1 cells (anti-tubulin immunofluorescence); type: cell-based; details: 24 hr
Procedure: as §4

[9] = test system: human tumor cell line MDA-MB-435S; experiment: Nude mouse xenograft, MDA-MB-435S (Example 9); type: in vivo; details: i.v., 3 times per week
Procedure: FBS was obtained from ATCC and all other reagents were obtained from Invitrogen Corp. (Carlsbad, Calif., USA). […] To inactivate the trypsin, 5 mL of growth media was added and then the contents of the flask were centrifuged to pellet the cells. The supernatant was aspirated and the cell pellet was resuspended in 10 mL of growth media and the cell number determined using a hemocytometer.
Animals were housed 4-5/cage in micro-isolators, with a 12 hr/12 hr light/dark cycle, acclimated for at least 1 week prior to use and fed normal laboratory chow ad libitum.

[10] = MCF7-α-tubulin-YFP cells treated with 1.0 μM compound
[11] = HL-60, HL60 (Leukemia), 72 hours, read-out: IC50

| SMILES | % Apoptotic Cells Gated (SB cells) [%] | cytotoxicity at 1 µM (SB cells) [%] | viability at 1 µM (SB cells) [%] | Apoptotic Population (%) (MDA-435 cells) | G0/G1 Phase (%) (MDA-435 cells) | G2/M Phase (%) (MDA-435 cells) | S Phase (%) (MDA-435 cells) | IC50 (MDA-435) [nM] | IC50 (HL-60 (T-cell leukemia); [11]) [nM] | IC50 [2] [nM] | IC50 [3] [nM] | IC50 [4] [nM] | IC50 [5] [nM] | IC50 (H29 (colon carcinoma)) [nM] | IC50 ([6]; MDR1, 72 h) [nM] | IC50 (MES-SA (uterine sarcoma); 72 hours, read-out: IC50) [nM] | other results |
| --- | --- | --- | --- | --- | --- | --- | --- | --- | --- | --- | --- | --- | --- | --- | --- | --- | --- |
| COc1cc(-c2oncc2-c2ccc(Br)cc2)cc(OC)c1OC [Compound 1, 4-(4-Bromo-phenyl)-5-(3,4,5-trimethoxy-phenyl)-isoxazole] | 18.36 | 14.4 | 60.1 | 11.35 | 19.15 | 32.60 | 37.60 | 132 |  |  |  |  |  |  |  |  | Tubulin-YFP signal pattern in live cells [1, 10]: cytoplasmic pattern |
| CCc1cc(-c2oncc2-c2ccc(I)cc2)c(O)cc1OC [Compound 4, 4-(4-Iodo-phenyl)-5-(2-hydroxy-4-methoxy-5-ethyl-phenyl)-isoxazole] | 19.05 | 20.1 | 52.8 |  |  |  |  | 232 | 50 | 50 | 50 | 50 | 50 | 50 | 50 | 50 |  |
| CCc1cc(-c2oncc2-c2ccc(Br)cc2)c(O)cc1OC [Compound 6, 4-(4-Bromo-phenyl)-5-(2-hydroxy-4-methoxy-5-ethyl-phenyl)-isoxazole] | 14.17 | 17.3 | 59.2 | 10.59 | 18.45 | 35.96 | 35.55 | 461 |  |  |  |  |  |  |  |  | Tubulin-YFP signal pattern in live cells [1, 10]: cytoplasmic pattern |
| COc1cc(-c2oncc2-c2ccc3c(c2)OCCO3)cc(OC)c1OC [Compound 46, 4-(2,3-Dihydro-benzo[1,4]dioxin-6-yl)-5-(3,4,5-trimethoxy-phenyl)-isoxazole] | 19.04 | 17.3 | 51 | 9.88 | 19.67 | 28.18 | 37.98 | 21 | 50 | 50 | 50 | 50 | 100 | 50 | 50 | 50 |  |
| COc1ccc(-c2cnoc2-c2cc(OC)c(OC)c(OC)c2)cc1N [Compound 249, 2-methoxy-5-(5-(3,4,5-trimethoxyphenyl)isoxazol-4-yl)aniline] |  |  |  |  |  |  |  |  |  |  |  |  |  |  | 1 |  | IC50 (HL-60 (T-cell leukemia); HL-60, 72 h, HL60 (Leukemia)): 1 nM; microtubule structure ([7]; 1 nM): Fragmented microtubules were found; proportion of cells with completely depolymerized microtubules ([7]; 1 nM): about 10%; proportion of cells with completely depolymerized microtubules ([7]; 5 nM): ~100%; IC50 (MES-SA (uterine sarcoma); MES-SA, 72 h): 1 nM; proportion of cells with completely depolymerized microtubules ([8]; 10 nM): about 10%; proportion of cells with completely depolymerized microtubules ([8]; 100 nM): ~100% |
| CC(=O)O[C@H]1C(=O)[C@@]2(C)[C@H]([C@H](OC(=O)c3ccccc3)[C@]3(O)C[C@H](OC(=O)[C@H](O)[C@@H](NC(=O)c4ccccc4)c4ccccc4)C(C)=C1C3(C)C)[C@]1(OC(C)=O)CO[C@@H]1C[C@@H]2O [Taxol, reference compound] | 17.84 | 12.5 | 63.7 | 16.17 | 19.12 | 32.32 | 32.93 | 16 | 5 | 2 | 5 | 5 | 5 | 10 |  | 5 | Tubulin-YFP signal pattern in live cells ([1]; MCF7-α-tubulin-YFP cells treated with 0.1 μM Taxol): microtubule bundle formation; IC50 ([6]; MDR1, 72 hours, read-out: IC50): 10000 nM |
| CC(=O)O[C@H]1C(=O)[C@@]2(C)[C@H]([C@H](OC(=O)c3ccccc3)[C@]3(O)C[C@H](OC(=O)[C@H](O)[C@@H](NC(=O)c4ccccc4)c4ccccc4)C(C)=C1C3(C)C)[C@]1(OC(C)=O)CO[C@@H]1C[C@@H]2O [paclitaxel, Paclitaxel] |  |  |  |  |  |  |  |  |  |  |  |  |  |  |  |  | tumor regression ([9]; paclitaxel at 7.5 mg/kg body weight, 10 doses): did not; tumor growth compared to vehicle ([9]; paclitaxel at 7.5 mg/kg): decreased tumor growth |
